For data set [1], the system named is HSV-2. As to the kind of experiment: In-vitro activity, HSV-2 infected Vero. The class given is cell-based. Particulars: Human alphaherpesvirus 2; Vero cells. The procedure: (§1) The in-vitro activity for (HSV-1 infected Vero), (HSV-2 infected Vero) and (HSV-1 (ACV resistant) infected vero) was tested as outlined in WO2017/174640 and WO2019/068817. For comparison, the non-deuterated matched-pair to Example 1 of the present application has been tested, which is hereinafter designated as Comparative Example C7 and which corresponds to Example 7 of WO2017/174640.

For data set [2], the system named is HSV-1. Description: In-vitro activity, HSV-1 infected Vero. It counts as cell-based. Particulars: Human alphaherpesvirus 1; Vero cells. The procedure: as §1
For data set [3], the system named is HSV-1 (ACV resistant). Description: In-vitro activity, HSV-1 (ACV resistant) infected vero. The class given is cell-based. As to conditions: Human alphaherpesvirus 1, Vero, read-out: IC50 (HSV-1 ACV resistant). The procedure:
as §1

A short description of data set [4]: Brain exposure and brain-to-plasma ratio in mouse. The class given is in vivo. As to conditions: C57BI/6N mouse; for behaviour and clinical signs after dosing: oral cassette dosing 10 mg/kg each; for Kp at 4 h: brain/plasma; for Kp at 4 h / concentration at 4 h: oral cassette 10 mg/kg. The procedure: The brain and plasma exposure for Example 6 as well as for Example 4/2 and for its non-deuterated matched-pair (Comparative Example C4/2/Example 7(—) from WO2017/174640) was asessed in 3 mice (strain C57BI/6N, weight 21-26 g) after oral cassette dosing with a dose of 10 mg/kg each after 4 h. The compounds were formulated in 5% DMSO and 95% aq. HPMC (0.5%). […] Plasma from the retrobulbar venous plexus was analyzed by LC-MS.

Data set [5] is described as follows: Pharmacokinetics in mouse. The class given is in vivo. Particulars: male C57BI/6N mouse; for % AUCextra / t1/2z / tz / AUC(0-inf) / AUC(0-t) / C0 / clearance / concentration at 24 h / Vd / Cmax / Tmax: cassette; for AUC(0-inf) / AUC(0-t) / C0 / clearance / concentration at 24 h / Vd / bioavailability / Cmax / Tmax: plasma; for concentration at 24 h: read-out: Cz; for Vd: read-out: Vz; for bioavailability: po 10 mg/kg vs iv 2 mg/kg. The protocol: Plasma from the retrobulbar venous plexus was analyzed by LC-MS. The obtained data obtained is as follows (NC=not calculable): […]

Data set [6] is described as follows: Additional microsomal stability, human microsomes, hydroxy metabolite formation. As to conditions: human (mixed gender) microsomes, 60 min. The class given is in vitro ADME. The procedure: The formation of the hydroxy metabolites was quantified via peak area ratio towards the corresponding non-deuterated matched pair when incubating the samples in rat microsomes (SD rat, male) or human microsomes (mixed gender) for 60 min at Admescope. The peak signal (positive mode) was quantified with a Waters Acquity UPLC+Thermo Q-Exactive Focus Orbitrap MS on a Phenomenex Kinetex Biphenyl (2.1×50 mm, 1.7 μm particle size […]) column.

A short description of data set [7]: Microsomal stability, human liver microsomes, conversion to hydroxylated metabolite. It counts as in vitro ADME. As to conditions: 1st and 2nd replicate. The protocol:
Example 1 and the non-deuterated matched pair (Comparative Example C7/Example 7 from WO2017/174640) were incubated using three different batches of human liver microsomes (HLM) for a period of 60 min. The conversion to the hydroxylated metabolite was monitored by LC-MS.

Where [8] appears, read: brain, read-out: mean brain conc. with SD.
Where [9] appears, read: plasma, read-out: mean plasma conc. with SD.

Values joined by “and” are separate entries in the source; they are usually repeats but may differ in a detail not shown here. Equal entries are not always repeated. Where two headings read alike, the source gives them in different places.

In the case of `[2H]C([2H])([2H])Oc1ccccc1-c1ccc(CC(=O)N(C)c2nc(C)c(S(N)(=O)=O)s2)cc1` [5/2], the half-inhibitory concentration (IC50) in data set [1] fell in the range of 30 to 150 nM; in data set [2], 10 to 100 nM; in data set [3], 10 to 100 nM.
As to `[2H]C([2H])([2H])c1nc(N(C)C(=O)Cc2ccc(-c3cc(F)ccc3F)cc2F)sc1S(N)(=O)=O` [6/2], the IC50 in data set [1] fell in the range of 3 to 75 nM; in data set [2], 2 to 60 nM; in data set [3], 2 to 60 nM.
As to `[2H]C([2H])([2H])c1nc(N(C)C(=O)Cc2ccc(-c3cccc(F)c3)cc2F)sc1S(N)(=O)=O` [Example 6/1], the IC50 in data set [1] was 4 to 75 nM; in data set [2], 2 to 60 nM; in data set [3], 2 to 60 nM.
Regarding `Cc1nc(N(C)C(=O)Cc2ccc(-c3cc(F)ccc3F)cc2)sc1[S@@](C)(=N)=O` [Comparative Example C4/2, reference compound], in data set [4], the “behaviour and clinical signs after dosing” value (from here on “behaviour and clinical signs”) is reported as “no clinical signs observed”; the Kp at 4 h was 1.57. Besides, the concentration at 4 h in data set [4] (setting [8]) was determined as 5610 ± 1450 ng/mL. The concentration at 4 h in data set [4] (setting [9]) is 3580 ± 726 ng/mL. In data set [5] (iv 2 mg/kg), the “% AUCextra” value was 12.4%, the t1/2z turned out to be 7.7 h, the tz is on record as 24 h and the AUC(0-inf) stood at 6390 ng·h/mL. In data set [5] (iv 2 mg/kg), the AUC(0-t) stood at 5600 ng·h/mL, the C0 is 10.4 ng/mL, the clearance was 5.22 mL/min/kg and the concentration at 24 h was 71.5 ng/mL. Moreover, the Vd in data set [5] (iv 2 mg/kg) was found to be 3.47 L/kg. In data set [5] (po 10 mg/kg), the tz is reported as 24 h, the AUC(0-t) stood at 46600 ng·h/mL, the Cmax was 2960 ng/mL and the Tmax was 4 h. Further, in data set [5] (po 10 mg/kg), the concentration at 24 h was 1260 ng/mL. Moreover, the bioavailability in data set [5] worked out at 167%.
As for `[2H]C([2H])([2H])c1nc(N(C)C(=O)Cc2ccc(-c3cc(F)ccc3F)cc2)sc1S(N)(=O)=O` [Example 6, 2-(2′,5′-Difluoro-[1,1′-biphenyl]-4-yl)-N-methyl-N-(4-(methyl-d3)-5-sulfamoylthiazol-2-yl)acetamide], the “hydroxy metabolite peak area ratio” value in data set [6] is on record as “BLQ”. For the same compound, the “behaviour and clinical signs” value in data set [4] was “no clinical signs observed”. Further, the partition ratio (Kp) at 4 h in data set [4] came out at 0.78. Also, the concentration at 4 h in data set [4] (setting [8]) stood at 3220 ± 1910 ng/mL; in data set [4] (setting [9]) it was 4130 ± 1760 ng/mL. Also, the half-inhibitory concentration (IC50) in data set [1], in data set [2] and in data set [3] was 2 to 60 nM throughout.
`[2H]C([2H])([2H])c1nc(N(C)C(=O)Cc2ccc(-c3cc(F)ccc3F)cc2)sc1S(C)(=N)=O` (racemic) [Example 1, 2-(2′,5′-Difluoro-[1,1′-biphenyl]-4-yl)-N-methyl-N-(4-(methyl-d3)-5-(S-methyl-sulfonimidoyl)thiazol-2-yl)acetamide]: the “Parent [nM] 60 min” value is 928 nM and 1085 nM in data set [7] (HLM batch 38292, 60 min); 1083 nM and 1058 nM in data set [7] (HLM batch 5061002, 60 min); 1231 nM and 1159 nM in data set [7] (HLM batch 6029002, 60 min). For the same compound, the IC50 in data set [1], in data set [2] and in data set [3] was 25 to 125 nM throughout.
As to `Cc1nc(N(C)C(=O)Cc2ccc(-c3cc(F)ccc3F)cc2)sc1S(C)(=N)=O` (racemic) [Comparative Example C7, reference compound], the “Parent [nM] 60 min” value was 1053 nM and 1255 nM in data set [7] (HLM batch 38292, 60 min, listed as Comp. Example C7); 1122 nM and 910 nM in data set [7] (HLM batch 5061002, 60 min, listed as Comp. Example C7); 937 nM and 973 nM in data set [7] (HLM batch 6029002, 60 min, listed as Comp. Example C7). Moreover, the half-inhibitory concentration (IC50) in data set [1], in data set [2] and in data set [3] was 25 to 100 nM throughout.
For `[2H]C([2H])([2H])c1nc(N(C)C(=O)Cc2ccc(-c3cc(F)ccc3F)cc2)sc1[S@@](C)(=N)=O` (single isomer, unassigned) [Example 4/2], the “improvement of plasma and brain exposure compared to the non-deuterated matched-pair” value in data set [4] (oral 10 mg/kg, after 4 h) is “over 50%”. In data set [4], the “behaviour and clinical signs” value was “no clinical signs observed”; the Kp at 4 h is 1.57. In addition, the concentration at 4 h in data set [4] (setting [8]) was 8610 ± 2180 ng/mL. The concentration at 4 h in data set [4] (setting [9]) was found to be 5470 ± 1320 ng/mL. Besides, the half-maximal inhibitory concentration (IC50) in data set [1] was in the range of 10 to 90 nM. For the same compound, the IC50 in data set [2] lay within 5 to 75 nM. In addition, in data set [5] (iv 2 mg/kg), the “% AUCextra” value is 24.9%, the t1/2z came out at 11.3 h, the tz is 24 h and the AUC(0-inf) stood at 10600 ng·h/mL. Moreover, in data set [5] (iv 2 mg/kg), the area under the curve AUC(0-t) was 8000 ng·h/mL, the C0 was 16.2 ng/mL, the clearance was 3.13 mL/min/kg and the concentration at 24 h stood at 162 ng/mL. In addition, the Vd in data set [5] (iv 2 mg/kg) is 3.07 L/kg. In data set [5] (po 10 mg/kg), the tz was found to be 24 h, the AUC(0-t) is 80200 ng·h/mL, the highest level (Cmax) was 4610 ng/mL and the Tmax is 4 h. In addition, in data set [5] (po 10 mg/kg), the concentration at 24 h is 2730 ng/mL. For the same compound, in data set [5], the bioavailability came to 201%. The IC50 in data set [3] was in the range of 5 to 75 nM.
Regarding `[2H]c1c([2H])c([2H])c(-c2ccc(CC(=O)N(C)c3nc(C)c(S(N)(=O)=O)s3)cc2)c([2H])c1[2H]` [Example 5, 2-([1,1′-Biphenyl]-4-yl-2′,3′,4′,5′,6′-d5)-N-methyl-N-(4-methyl-5-sulfamoyl-thiazol-2-yl)acetamide], the half-inhibitory concentration (IC50) lay within 25 to 125 nM in data set [1], 1 to 50 nM in data set [2] and 1 to 50 nM in data set [3].
In the case of `[2H]C([2H])([2H])Oc1cccc(-c2ccc(CC(=O)N(C)c3nc(C)c(S(N)(=O)=O)s3)cc2)c1` [Example 5/1], the IC50 was in the range of 5 to 75 nM in data set [1], 10 to 100 nM in data set [2] and 10 to 100 nM in data set [3].
For `[2H]C([2H])([2H])c1nc(N(C)C(=O)Cc2ccc(-c3cc(F)ccc3F)cc2)sc1[S@](C)(=N)=O` (single isomer, unassigned) [Example 4/1], the IC50 in data set [1] fell in the range of 50 to 250 nM; in data set [2], 50 to 150 nM; in data set [3], 50 to 150 nM.

For the origin of these results see patent publication US12552756B2, “Deuterated aminothiazole compounds as antiviral compounds” (priority 2020, dated 2026).
